Results taken from patent US20240009150A1, “CAPSAICYNS IN THE TREATMENT OF LEAKY GUT” (AXICHEM AB [SE]/[SE], priority 2020, published 2024).
Entries after “also recorded” stand apart in the source; their conditions may differ. Marks after values point to notes of the source that are not given here.

Key:
Escherichia coli O157:H7 = experiment: Inhibition of biofilm formation, crystal violet staining assay; type: cell-based; conditions: for Biofilm (OD 595 nm): 24 hr; for Biofilm (OD 595 nm) / biofilm formed (CVSA), in words: 30° C.
Procedure: (§1) Biofilm formation was quantified with modifications using the method described by Stepanovic et al. (Journal of Microbiological Methods, 2000, 40(2), 175-19) with modifications. Using a 96-well microplate duplicate the test solutions were filled at the above selected doses. Cultures were grown for 18 hr in LB at 30° C. and adjusted to OD 0.1 at 600 nm. 20 μL of the culture were added into each well and the remainder of the volume to 200 μL per well was filled with LB. Unused external wells were filled with 200 μL of sterile water to prevent evaporation.
(§2) After 24 hr of incubation, supernatants were discarded, and the wells were washed three times with 200 μL of sterile phosphate buffered saline (PBS). Bacteria adhered to the wells were fixed with 200 μL of methanol for 15 min, the methanol was discarded, and the plates dried at 25° C.
(§3) Each well was stained with 200 μL of 0.3% (w/v) crystal violet solution for 5 min at 25° C. Crystal violet excess was pipetted out, and the wells were rinsed five times with sterile PBS. 200 μL of 33% (v/v) glacial acetic acid were added to the wells for 30 min to solubilise the dye adhered to the cell walls. Optical density (OD) was measured at 595 nm using a microplate spectrophotometer as a direct measure of biofilm formation. P. aeruginosa in 3% DMSO will be used as the negative control.
(§4) A stock solution of 1000 μg of phenylcapsaicin and capsaicin was prepared by dissolving 1000 μg in 100 μL of ethanol and 900 μL of sterile water. The stock solutions were sequentially diluted with double and then quadruple volumes of solvent (10% aqueous ethanol solution) to yield 500/125/31.25 (32)/7.81 (8) μg/ml test solutions.
(§5) E. coli O157:H7 was used to determine the biofilm inhibition activity. Inducer N-hexanoyl homoserine lactone (C6-HSL) was purchased from Sigma-Aldrich. E. coli O157:H7 was cultivated in Luria-Bertani (LB) medium (LB, 5 g yeast extract, 10 g tryptone, 5 g NaCl, 1 L water) at 37° C. overnight under aerobic conditions.
Crystal violet staining assay was performed as in Experiment 3, using E. coli O157:H7 in 3% DMSO as the control.

[1] = test system: Salmonella enterica subsp. enterica serovar Paratyphi C (ATCC® BAA 1714™); experiment: Inhibition of biofilm formation, crystal violet staining assay (Example 5); type: cell-based; conditions: for Biofilm (OD 595 nm): 24 hr; for Biofilm (OD 595 nm) / biofilm formed (CVSA), in words: 30° C.; for biofilm formed (CVSA), in words: 32 and 8 μg/ml
Procedure: as §1, §2, §3
as §4, with “μl” for “μL”
as §5, with “ATCC® BAA 1714™” for “E. coli O157:H7”
Crystal violet staining assay was performed as in Experiment 3, using ATCC® BAA 1714™ in 3% DMSO as the control.

[2] = Rage Paulsen et al., Toxicology Research and Application 2018; cited from earlier work

| Structure (SMILES) | Biofilm (OD 595 nm) (Escherichia coli O157:H7; 8 μg/mL) | Biofilm (OD 595 nm) (Escherichia coli O157:H7; 32 μg/mL) | Biofilm (OD 595 nm) (Escherichia coli O157:H7; 125 μg/mL) | biofilm formation inhibition, in words (Escherichia coli O157:H7; 125, 32 and 8 μg/ml, any dose tested) | Biofilm (OD 595 nm) ([1]; 7.81 μg/mL) | Biofilm (OD 595 nm) ([1]; 31.125 μg/mL) | biofilm formed (CVSA), in words [1] | biofilm formation inhibition, conclusion in words ([1]; any dose tested) | biofilm formed (CVSA), in words (Escherichia coli O157:H7; 8 μg/ml lowest dose tested) | biofilm formed (CVSA), in words (Escherichia coli O157:H7; 125 and 32 μg/ml) | safety with regards to gene mutations and chromosomal damage [2] | systemic toxicity [2] |
| --- | --- | --- | --- | --- | --- | --- | --- | --- | --- | --- | --- | --- |
| COc1cc(CNC(=O)CCCC/C=C/C(C)C)ccc1O [Capsaicin, (E)-N-(4-hydroxy-3-methoxybenzyl)-8-methylnon-6-enamide, reference compound] | 5.9^a OD 595 nm | 5.8^a OD 595 nm | 5.1^a OD 595 nm | did not show any reduction of biofilm formation; also recorded: did not exhibit any biofilm formation inhibition | 8.5^a OD 595 nm | 8.1^a OD 595 nm | did not show any reduction of biofilm formation | did not exhibit any biofilm formation inhibition |  |  |  |  |
| COc1cc(CNC(=O)CCCCC#Cc2ccccc2)ccc1O [Phenylcapsaicin, N-[(4-hydroxy-3-methoxyphenyl)methyl]-7-phenylhept-6-ynamide] | 4.9^b OD 595 nm | 2.4^b OD 595 nm |  |  | 2.9^b OD 595 nm | 3.2^b OD 595 nm | significantly reduced; also recorded: good inhibitor of biofilm formation |  | no effect | significantly reduced; also recorded: good inhibitor of biofilm formation | safe | low systemic toxicity |
